Data: patent publication US20220071205A1, “HERBICIDE” (UPL LTD, priority 2018, published 2022)

Tests used:
[1] = test system: winter wheat; experiment: Normalised plant count of winter wheat, field trials (Example 1, FIG. 1); type: in vivo; conditions: average of 6 field trials
Experimental: A herbicide composition consisting of an SC of 450 g/L napropamide-m was applied to winter wheat either pre- or post-emergence. The normalised plant count was determined as a percentage of the plant count observed in the absence of the herbicide. Control experiments were conducted with the conventional herbicide Trooper, as defined above.
Results from an average of 6 field trials (napropamide; Trooper low dose: 4 sites; Trooper high dose: 2 sites) with herbicide application in October are shown in FIG. 1. […] Plant survival after emergence was 100% of the survival rate in the absence of napropamide.

[2] = test system: winter wheat; experiment: Normalised plant growth of winter wheat at another site (Example 1, FIG. 2); type: in vivo; conditions: pre-em
Experimental: Similar experiments were carried out at another site where the effect of seed depth was to be determined, see Example 3 below. Control experiments were conducted with the conventional herbicides Trooper and Xerton, as defined above.

## CCN(CC)C(=O)C(C)Oc1cccc2ccccc12 (stereo not drawn) [napropamide, N,N-diethyl-2-(α-naphthoxy) propionamide]
[1]; % of the survival rate in the absence of napropamide
  Plant survival after emergence: 100%
[1]; herbicide application in October
  effect on the growth of winter wheat: no detectable effect
[2]
  Plant survival after emergence: comparable with that following application of conventional herbicides Trooper/Malibu and Xerton
  effect on the growth of winter wheat: very low effect
